Consider 1 molecule from patent US20130012531A1, “TREATMENT METHOD” (priority 2010, published 2013).

For data set [1], the system named is experimental CNV (choroidal neovascularization) leakage. The experiment in a line: Fluorescence angiography in experimental laser-induced CNV. It counts as in vivo, Brown Norway rats. The procedure: (§1) Male Brown Norway rats (10-12 weeks of age, […] weighing 170 to 360 g) were used throughout this study. The animals were treated according to ARVO Statement on the use of animals in ophthalmic and vision research, and all animal experiments were reviewed and approved by municipal and University Hospital animal care committees in Leipzig. The rats were anesthetized with intraperitoneal ketamine (100 mg/kg; Ratiopharm, Ulm, Germany) and xylazine (BayerVital, Leverkusen, Germany; 10 mg/kg). Topical application of tropicamide (5 mg/ml) and phenylephrine hydrochloride (Ankerpharm, Rudolstadt, Germany; 50 mg/ml) were instilled for mydriasis during laser photocoagulation and fluorescein angiography. Fourteen days after laser injury, rats were humanely euthanized using overdoses of carbon dioxide.
(§2) Animals were treated using laser photocoagulation-induced rupture of Bruch's membrane using a 545 nm dye laser (Coherent Argon Dye Laser #920, Coherent Medical Laser, Palo Alto, Calif.) attached to a slit lamp (Carl Zeiss, Oberkochen, Germany). A contact lens was used to retain corneal clarity through photocoagulation. The laser spots were placed separately using the following settings; 50-μm diameter, 0.1 second duration, and 180-mW intensity. To rupture Bruch's membrane, four to seven laser spots were applied between the major retinal vessels close to the optic disc. Pazopanib (approximately 30 μl of a 5 mg/ml sterile-filtered solution) was administered twice daily. Animals of the control group received a vehicle only.
Aiming to document treatment of CNV in its early stage, a treatment schedule was used as follows. Laser photocoagulation was carried out as described above, and pazopanib was applied twice a day topically from post laser day 6 until study end on post laser day 14. Coagulated lesions were first documented by angiography on day 7 post laser, and only rats with ocular CNV were included in the analysis. Sodium fluorescein was injected into tail vein of the anesthetized rats and fluorescein angiograms were obtained by means of a fundus camera (FD-31A, Topcon, Tokyo, Japan). On day 14, rats underwent a second angiography. Angiograms taken 100 to 140 seconds after injection were converted to digital images, and areas of fluorescein leakage with intensity as high as in major vessels were quantified in a masked fashion BY two of us (YY; XMY) using a computer software (NIH image, Research Service Branch, Bethesda, Md.). Differences in fluorescence were calculated by the following formula:
Area of fluorescein leakage on day 14×100%/area of fluorescein leakage on day 7.

The test system of a further data set is CNV lesions. The experiment in a line: Histology (HE) of CNV lesion area on post-laser day 14. The data set is classed as in vivo, Brown Norway rats. The procedure: as §1, §2
After the rats were euthanized on day 14, eyes were immediately dissected and fixed with 4% paraformaldehyde (dissolved in PBS). […] Three to five serial sections from each CNV membrane were measured, and the highest value (representing the top of a given CNV complex) was stored. Digitized images were analyzed and measured with the concomitant image-analysis software (Axiovision; Carl Zeiss). Each lesion was encircled manually, and their area (in μm^2) was calculated by the program.

The nature of data set [2]: Ocular tissue distribution and systemic concentrations of radioactivity after topical ocular administration. It counts as in vivo, Dutch belted (pigmented) rabbits. As for the experimental part:
The ocular tissue distribution and systemic concentrations of radioactivity were assessed following topical ocular administration of pazopanib to Dutch belted (pigmented) rabbits. A single 60-μL at a target dose of 0.3 mg/dose (30 μCi/dose) was administered to the right eye. Blood and ocular tissues from both the dosed and non-dosed (left) eye were collected from one animal at each of eight sampling times up to 24 h, and analyzed for total radioactivity.

Data set [3] in a line: Plasma and ocular tissue drug concentration after topical eye drops. It counts as in vivo, Norway Brown rats. Particulars: for concentration at 5 hours after third drop: female, Norway Brown, rat, topical, 30 μl (5 mg/ml) per drop, three drops over 24 hours, 30 μl drops to left eye only, three times over 24 hours. The procedure:
Female Norway Brown rats were used during these studies. Rats were purchased from Charles River (Portage, Mich.). […]
Rats were euthanized by CO2 inhalation before enucleation and collection of plasma samples. Samples were frozen immediately over dry ice after collection and then stored at −80° C. The ocular tissues were processed through a dissection-pulverization-drug extraction process. Frozen eye sectioning was performed by the following steps. The preparation of rat eye cups was done by removing the anterior portion of the eye with a razor blade followed by removal of the lens and frozen vitreous with forceps. A sagittal section was made in the eye cup before collection of the retina/choroid tissue by scraping the exposed sclera with the round end of a spatula until the pigmented tissue was completely removed from the scleral tissue. The collected tissues were pulverized under liquid nitrogen. Frozen tissue was carefully placed in a liquid nitrogen primed BioPulverizer (Biospec Products Inc, Bartlesville, Okla.). Following pulverization the tissue powder was removed from the pulverizer and transferred into a polypropylene tube. Extraction buffer (50% methanol/50% 0.5 M HCl) was added to tissue powder followed by two cycles of sonication, centrifugation, and supernatant collection. Tissue homogenate supernatant was pooled and frozen on dry ice then stored at −80° C. until drug analysis. The extraction efficacy of this methodology was assumed to be 100% for calculation purposes.
Plasma samples and eye tissue extracts were analyzed for pazopanib using a validated analytical method based on protein precipitation, followed by HPLC/MS/MS analysis, Using 50 μl aliquot of plasma and eye tissue extract, the lower limit of quantification of pazopanib was 1 ng/ml for plasma and 10 ng/ml for eye tissue extract. The higher limit of quantification was 500 ng/ml for plasma and 5000 ng/ml for eye tissue extracts. The computer systems that were used on these studies to acquire and quantify data included Analyst Version 1.4,1 and SMS2000 Version 1.6. Plasma sample concentrations were expressed as ng pazopanib/ml. Tissue concentrations were determined by the following formula: Pazopanib ng/g tissue=([concentration in supernatant ng/ml*extract volume ml]/tissue weight g).

[4] abbreviates: single 60-μL topical dose 0.3 mg.
Where [5] appears, read: single 60-μL topical dose 0.3 mg, 2 h.

Where two headings read alike, the source gives them in different places.

In the case of `Cc1ccc(Nc2nccc(N(C)c3ccc4c(C)n(C)nc4c3)n2)cc1S(N)(=O)=O` [pazopanib, 5-[[4-[(2,3-dimethyl-2H-indazol-6-yl)methylamino]-2-pyrimidinyl]amino]-2-methylbenzenesulfonamide], the “Area of fluorescein leakage on day 14 x 100% / area on day 7” value in data set [1] (lesioned eyes whose fellow (contralateral) eye was pazopanib-treated, % of baseline day 7) is 115.24±16.72%. For the same molecule, the “development of CNV lesions (vessel leakage, fluorescence angiography)” value in data set [1] (topically administered, post laser days 7 to 14, versus vehicle) is on record as “significantly reduced”. Also, the “Area of fluorescein leakage on day 14 x 100% / area on day 7” value in data set [1] (topically treated eyes, twice daily 5 mg/ml eye drops, post laser day 6-14, mean±SD, baseline 100% at day 7) worked out at 111.41±21.34%. The “inhibition of further lesion development” value in data set [1] (twice-daily topical administration, versus vehicle control eyes) was > 89%. Further, the CNV lesion area in the data set with CNV lesions (eyes treated topically with pazopanib, day 14 after laser) is given as 7,760.3±2,312.0 μm^2. Also, in the data set on CNV lesions (lasered eyes from rats treated topically in the fellow eye), the “inhibition in lesion size” value is reported as ~34%. Besides, the “inhibition in lesion size compared to vehicle control” value with CNV lesions (topically treated eyes, day 14) worked out at 71.7%. In addition, in data set [2] (setting [4]), the “time of choroid peak level” value is given as 8 h, the “time of highest concentration in blood” value amounted to 1 h, the “time of highest concentration in plasma” value turned out to be 2 h and the “time of retina peak level” value is 4 h. Besides, in data set [2] (single 60-μL topical dose 0.3 mg to right eye, at 1 h), the “highest concentration of radioactivity in blood” value is reported as 11.3 ng eq/g. In addition, in data set [2] (single 60-μL topical dose 0.3 mg to right eye, at 2 h), the “highest concentration of radioactivity in plasma” value is reported as 12,8 ng eq/g. Further, in data set [2] (setting [5]), the “choroid level of radioactivity at 2 h” value stood at 40.6 ng eq/g and the “retina level of radioactivity at 2 h” value is reported as 9.17 ng eq/g. Also, the “retina peak level of radioactivity” value in data set [2] (single 60-μL topical dose 0.3 mg, at 4 h) was 10.2 ng eq/g. Besides, the “choroid peak level of radioactivity” value in data set [2] (single 60-μL topical dose 0.3 mg, at 8 h) was 60.1 ng eq/g. For the same molecule, in data set [3] (eye cup tissues of the fellow non-treated eye (OD), read-out: pazopanib in eye cup tissues, fellow non-treated eye (OD), mean), the concentration at 5 hours after third drop turned out to be 159 ng/g. The concentration at 5 hours after third drop in data set [3] (read-out: pazopanib in eye cup tissues (sclera, choroid, retina), treated eye (OS), mean) amounted to 503 ng/g. Besides, in data set [3] (single 30 μl eye drop), the “plasma level after 24 hours” value is recorded as “undetectable” and the “time of peak plasma level” value came out at 60 min. In data set [3] (single 30 μl eye drop (5 mg/ml)), the peak plasma level was ~300 ng/mL.
